Results from patent US7414042B2, “Method and composition for selectively inhibiting melanoma” (The Board of Trustees of The University of Illinois, priority 1995, dated 2008).
≈ marks a conversion by molar mass, not a printed value. Where two headings read alike, the source gives them in different places.

Key:
[1] = tested on: BC-1 (breast); experiment: Cytotoxicity against cultured human cancer cells (SRB); format: cell-based; conditions: Homo sapiens, 72 h, read-out: ED50 BC-1
Protocol: (§1) The plates were incubated for three days. […] Dose response studies were performed to generate ED50 values.

[2] = tested on: COL-2 (colon); experiment: as above; format: cell-based; conditions: Homo sapiens, Col2, 72 h, read-out: ED50 COL-2
Protocol: as §1

[3] = tested on: HT-1080 (sarcoma); experiment: as above; format: cell-based; conditions: Homo sapiens, HT-1080, 72 h, three days incubation, read-out: ED50 HT-1080
Protocol: as §1

[4] = tested on: LNCaP (prostate); experiment: as above; format: cell-based; conditions: Homo sapiens, LNCaP, 72 h, read-out: ED50 LNCaP
Protocol: as §1

[5] = tested on: ZR-75-1 (breast); experiment: as above; format: cell-based; conditions: Homo sapiens, ZR-75-1, 72 h, read-out: ED50 ZR 75-1
Protocol: as §1

[6] = tested on: MEL-2 (melanoma); experiment: Cytotoxicity against cultured human melanoma cells (SRB); format: cell-based; conditions: for IC50: Homo sapiens, MEL2, 72 h, three days incubation, SRB, Table 1 and text, read-out: ED50 MEL-2; for ED50 (Std. Dev.) MEL-2: derivatives, Tables 2-6
Protocol: as §1

[7] = tested on: human melanoma and nonmelanoma cancer cell lines; experiment: Cytotoxicity profile across the panel of human cancer cell lines; conditions: Table 1 panel
Protocol: (§2) In the following Table 1, the extracted betulinic acid and the other pure compounds were tested for cycotoxity against the following cultured human cell lines: A431 (squamous cells), BC-1 (breast), COL-2 (colon), HT-1080 (sarcoma), KB (human oral epidermoid carcinoma), LNCaP (prostate), LU-1 (lung), MEL-2 (melanoma), U373 (glioma) and ZR-75-1 (breast).
(§3) Cytotoxicity of the crude extracts and purified compounds was determined in a number of cultured human cancer cell lines. The cells were cultured in appropriate media and under standard conditions. To maintain logarithmic growth, the media were changed 24 hours prior to cytotoxic assays. On the day of the assay, the cells were harvested by trypsinization, counted, diluted in media, and added to 96-well plates containing test compounds dissolved in DMSO; the final DMSO concentration was 0.05%.
(§4) The plates were incubated for three days. Following the incubation period, the cells were fixed and stained with sulforhodamine B (SRB) dye. The bound dye was liberated with Tris base, and the OD515 was measured on an ELISA reader. The growth of the betulinic acid-treated cells was determined by the OD515 values, and the growth was compared to the OD515 values of DMSO-treated control cells. Dose response studies were performed to generate ED50 values.
(§5) The biological evaluation of the derivatives focused on the activity against human melanoma cell lines. In particular, the following betulinic acid derivatives were prepared and tested for cytotoxicity profile against human melanoma cell lines and against a number of selected nonmelanoma cell lines.

[8] = tested on: KB (human oral epidermoid carcinoma); experiment: Cytotoxicity against cultured human cancer cells (SRB); format: cell-based; conditions: for ED50 (Std. Dev.) KB: derivatives, Tables 2-6; for IC50: Homo sapiens, 72 h, three days incubation, SRB, Table 1, read-out: ED50 KB
Protocol: as §1

[9] = tested on: LOX melanoma cell line; experiment: Cytotoxicity of betulinic acid derivatives; format: cell-based, human; conditions: Tables 2-6
Protocol: as §1

[10] = tested on: MALE-3M melanoma cell line; experiment: Cytotoxicity of betulinic acid derivatives; format: cell-based, human; conditions: Tables 2-6
Protocol: as §1

[11] = tested on: MEL-6 melanoma cell line; experiment: Cytotoxicity of betulinic acid derivatives; format: cell-based, human; conditions: Tables 2-6
Protocol: as §1

[12] = tested on: MEL-8 melanoma cell line; experiment: Cytotoxicity of betulinic acid derivatives; format: cell-based, human; conditions: Tables 2-6
Protocol: as §1

[13] = tested on: human melanoma and nonmelanoma cancer cell lines
Protocol: as §2, §3, §4, §5

[14] = tested on: A431 (squamous cells); experiment: Cytotoxicity against cultured human cancer cells (SRB); format: cell-based; conditions: Homo sapiens, A-431, 72 h, read-out: ED50 A431
Protocol: as §1

[15] = tested on: U373 (glioma); experiment: as above; format: cell-based; conditions: Homo sapiens, U373 MG, 72 h, read-out: ED50 U373
Protocol: as §1

Structure (SMILES) | ED50 (Std. Dev.) KB [8] | ED50 (Std. Dev.) MEL-2 [6] | ED50 (Std. Dev.) LOX [9] | ED50 (Std. Dev.) MALE-3M [10] | ED50 (Std. Dev.) MEL-6 [11] | ED50 (Std. Dev.) MEL-8 [12] | cytotoxicity and selectivity compared with betulinic acid or the corresponding analog [13] | other results
CC[C@@]1(O)C(=O)OCc2c1cc1n(c2=O)Cc2cc3ccccc3nc2-1 [Camptothecin] | – | – | – | – | – | – | – | IC50 ([1]; three days incubation, SRB): 0.07 µg/mL (≈ 0.201 µM); IC50 ([2]; three days incubation, SRB): 0.005 µg/mL (≈ 0.0144 µM); IC50 [3]: 0.01 µg/mL (≈ 0.0287 µM); IC50 ([4]; three days incubation, SRB): 0.006 µg/mL (≈ 0.0172 µM); IC50 ([5]; three days incubation, SRB): 0.001 µg/mL (≈ 0.00287 µM); IC50 [6]: 0.02 µg/mL (≈ 0.0574 µM); cytotoxic activity profile, cell-type selectivity [7]: relatively intense, nonselective cytotoxic activity
C=C(C)C1CCC2(C=O)CCC3(C)C(CCC4C5(C)CCC(=O)C(C)(C)C5CCC43C)C12 (stereo not shown) [Compound 1] | 12.9 µg/mL (≈ 29.4 µM) | 7.4 (2.4) μg/mL | 18.5 µg/mL (≈ 42.2 µM) | >20 μg/mL | >20 µg/mL | 3.2 (1.2) μg/mL | – | –
C=C(C)C1CCC2(C=NOC)CCC3(C)C(CCC4C5(C)CCC(=NOC)C(C)(C)C5CCC43C)C12 (stereo not shown) [Compound 3] | 20 µg/mL (≈ 40.3 µM) | >20 µg/mL | >20 µg/mL | >20 μg/mL | >20 µg/mL | >20 µg/mL | – | –
C=C(C)C1CCC2(C=NO)CCC3(C)C(CCC4C5(C)CCC(=NO)C(C)(C)C5CCC43C)C12 (stereo not shown) [Compound 4] | 3.3 µg/mL (≈ 7.04 µM) | 2.2 (0.7) μg/mL | 4.1 µg/mL (≈ 8.75 µM) | 17.5 μg/mL | 11.9 (2.7) μg/mL | 1.4 (0.6) μg/mL | improved the cytotoxicity profile, although selectivity was lost | –
CON=C1CCC2(C)C(CCC3(C)C2CCC2C4C(C(C)C)CCC4(C(=O)O)CCC23C)C1(C)C (stereo not shown) [Compound 5] | – | >20 µg/mL | – | >20 μg/mL | >20 µg/mL | >20 µg/mL | less active | –
CC(C)[C@@H]1CC[C@]2(C(=O)O)CC[C@]3(C)[C@H](CC[C@@H]4[C@@]5(C)CCC(=O)C(C)(C)[C@@H]5CC[C@]43C)[C@@H]12 [Compound 6, Dihydrobetulonic acid] | – | 0.7 (0.6) μg/mL | – | 20 μg/mL | 10.8 (2.6) μg/mL | 0.9 (0.4) μg/mL | comparable biological activity | –
CC(C)C1CCC2(C(=O)O)CCC3(C)C(CCC4C5(C)CCC(=NO)C(C)(C)C5CCC43C)C12 (stereo not shown) [Compound 7] | – | 2.2 (0.3) μg/mL | – | 13.9 μg/mL | 13.1 (1.1) μg/mL | 1.6 (1.1) μg/mL | comparable biological activity | –
C=C(C)[C@@H]1CC[C@]2(C(=O)O)CC[C@]3(C)[C@H](CC[C@@H]4[C@@]5(C)CCC(=O)C(C)(C)[C@@H]5CC[C@]43C)[C@@H]12 [Compound 8, Betulonic acid] | 2.5 µg/mL (≈ 5.5 µM) | 0.9 (0.8) μg/mL | 6.9 µg/mL (≈ 15.2 µM) | 20 μg/mL | 15.3 (3.4) μg/mL | 0.4 (0.1) μg/mL | decrease in selective cytotoxicity | –
CC(C)[C@@H]1CC[C@]2(C(=O)O)CC[C@]3(C)C(CCC4[C@@]5(C)CC[C@H](O)C(C)(C)C5CC[C@]43C)C12 (stereo partly shown) [Compound 11, Dihydrobetulinic acid] | >20 µg/mL | 5.8 µg/mL (≈ 12.6 µM) | >20 µg/mL | – | – | – | less active | –
C=C(C)[C@@H]1CC[C@]2(CO)CC[C@]3(C)[C@H](CC[C@@H]4[C@@]5(C)CC[C@H](O)C(C)(C)[C@@H]5CC[C@]43C)[C@@H]12 [Compound 12, lup-20(29)-ene-3β,28-diol] | >20 µg/mL | >20 µg/mL | >20 µg/mL | – | – | – | – | –
C=C(C)C1CCC2(C(=O)O)CCC3(C)C(CCC4C5(C)CCC(=NOC)C(C)(C)C5CCC43C)C12 (stereo not shown) [Compound 13] | 4.3 µg/mL (≈ 8.89 µM) | 8.3 µg/mL (≈ 17.2 µM) | >20 µg/mL | – | – | – | decrease in selective cytotoxicity | –
C=C(C)[C@@H]1CC[C@]2(C(=O)OC)CC[C@]3(C)[C@H](CC[C@@H]4[C@@]5(C)CC[C@H](O)C(C)(C)[C@@H]5CC[C@]43C)[C@@H]12 [Compound 14, Methyl betulinate] | 11.8 µg/mL (≈ 25.1 µM) | 8.3 µg/mL (≈ 17.6 µM) | 12.5 µg/mL (≈ 26.6 µM) | – | – | – | – | –
C=C(C)[C@@H]1CC[C@]2(C)CC[C@]3(C)[C@H](CC[C@@H]4[C@@]5(C)CC[C@H](O)C(C)(C)[C@@H]5CC[C@]43C)[C@@H]12 [Compound 15, Lupeol] | >20 µg/mL | 17.6 µg/mL (≈ 41.2 µM) | 15.6 µg/mL (≈ 36.6 µM) | – | – | – | – | –
C=C(C)[C@@H]1CC[C@]2(C)CC[C@]3(C)[C@H](CC[C@@H]4[C@@]5(C)CC[C@H](OC(=O)c6ccccc6)C(C)(C)[C@@H]5CC[C@]43C)[C@@H]12 [Compound 16, Lupeol benzoate] | >20 µg/mL | >20 µg/mL | >20 µg/mL | – | – | – | – | –
COc1cc([C@@H]2c3cc4c(cc3[C@H](O)[C@H]3COC(=O)[C@H]23)OCO4)cc(OC)c1OC [Podophyllotoxin] | – | – | – | – | – | – | – | IC50 [14]: 0.03 µg/mL (≈ 0.0724 µM); IC50 [1]: 0.03 µg/mL (≈ 0.0724 µM); IC50 [2]: 0.005 µg/mL (≈ 0.0121 µM); IC50 [8]: 0.08 µg/mL (≈ 0.193 µM); IC50 [4]: 0.04 µg/mL (≈ 0.0965 µM); IC50 [15]: 0.004 µg/mL (≈ 0.00965 µM); IC50 [5]: 0.4 µg/mL (≈ 0.965 µM); IC50 [6]: 0.003 µg/mL (≈ 0.00724 µM); cytotoxic activity profile, cell-type selectivity [7]: relatively intense, nonselective cytotoxic activity
CC(=O)O[C@H]1C(=O)[C@@]2(C)[C@H]([C@H](OC(=O)c3ccccc3)[C@]3(O)C[C@H](OC(=O)[C@H](O)[C@@H](NC(=O)c4ccccc4)c4ccccc4)C(C)=C1C3(C)C)[C@]1(OC(C)=O)CO[C@@H]1C[C@@H]2O [Taxol, paclitaxel] | – | – | – | – | – | – | – | IC50 ([1]; three days incubation, SRB): 0.02 µg/mL (≈ 0.0234 µM); IC50 ([2]; three days incubation, SRB): 0.02 µg/mL (≈ 0.0234 µM); IC50 [8]: 0.02 µg/mL (≈ 0.0234 µM); IC50 ([4]; three days incubation, SRB): 0.02 µg/mL (≈ 0.0234 µM); IC50 ([15]; three days incubation, SRB): 0.008 µg/mL (≈ 0.00937 µM); IC50 ([5]; three days incubation, SRB): 0.02 µg/mL (≈ 0.0234 µM); IC50 [6]: 0.06 µg/mL (≈ 0.0703 µM); cytotoxic activity profile, cell-type selectivity [7]: relatively intense, nonselective cytotoxic activity
